Measurements taken from US20110027354A1, “ANTI-PA[…]” (priority 2008, published 2011).

Legend:
MPTP-treated mice = assay: Rota-rod test in MPTP-treated mice; settings: 2.5 mg/kg i.p.; for effect on MPTP-impaired Rota-rod performance: vs. MPTP alone
Method: The apparatus (Ugo Basile model 7650) consisted of a base platform and a rotating rod with a nonslippery surface. The rod was placed at a height of 15 cm from the base. The rod, 30 cm in length, was divided into 5 equal sections by 6 opaque disks (so that the subjects cannot be distracted by one another). To assess motor performance, the mice were first trained on the apparatus 2 minutes at a rate 4 r.p.m. per 30 s prior to the test. The test was performed 30 minutes after training and an accelerating paradigm was applied at a rate 4 r.p.m. per 30 s, starting from 4 r.p.m. to a maximum speed of 40 r.p.m., then the rotation speed was kept constant at 40 r.p.m. for a maximum of 300 s. The duration for which the animal could maintain balance on the rotating drum was measured as the rotarod latency, with a maximal cut-off time of 300 s.

[1] = tested on: tyrosine hydroxylase (TH); assay: TH-immunoreactivity by immunocytochemistry; format: in vivo, mice; settings: for effect on MPTP-induced decrease of TH-immunoreactivity (TH-IR): immunocytochemistry (ICC), vs. MPTP alone; for TH-immunoreactivity: drug alone (no MPTP)
Method: Animals were sacrified at 1 day after MPTP-treatment. They were anesthetized with 60% urethane and perfused transcardially with 200 ml of 50 mM phosphate buffered saline (PBS), followed by 50 ml of paraformaldehyde in PBS. The brain were fixed at 4° C. for 24 h in the same fixative and then cryoprotected in 30% sucrose. The brains were sectioned on a horizontal sliding microstome into 35 μm transverse free-floating sections.
The immunocytochemistry was performed as described previously (Kim et al., 2000a; Kim et al., 2000b). Briefly, prior to incubation with the primary antibodies, sections were preincubated with 0.3% hydrogen peroxide in PBS for 30 min (to block endogenous peroxidase activity), then in PBS containing 0.4% Triton X-100 for 20 min and 1% no: mal serum for 20 min. After a 48 h incubation with the primary antibody at 4° C., sections were incubated with the secondary biotinylated antisera (1:1000 dilution; Vector, Brulingame, Calif.) for 1 h, washed, and immersed in avidin-biotin-peroxidase complex (ABC Elite kit, Vector) for 1 hr. Sections were always washed three times with PBS between each incubation step. 3,3′-Diaminobenzidine (DAB) was used as the chromogen. The quantitative analyses were performed using a computer-based image analysis system (Optimas version 6.2; Neurolucida Program) (Kim et al., 1999).

[2] = tested on: brain derived neurotrophic factor (BDNF); assay: BDNF expression (western blot); format: in vivo, mice; settings: striatum; for effect on MPTP-induced reduction of BDNF expression: pre-treatment, vs. MPTP alone
Method: The western blot assays were performed as described previously (thong et al., 1997). Tissues were homogenized in lysis buffer, containing 200 mM Tris HCl (pH 6.8), 1% SDS, 5 mM ethylene glycol tetraacetic acid, 5 mM ethylenediaminetetraacetic acid, 10% glycerol, 1× phosphatase inhibitor cocktail I, 1× protease inhibitor cocktail. The supernatant fraction was subsequently centrifuged at 30,000×g for 30 min. The resulting pellet was resuspended in the sample buffer. Proteins (20-50 ug/lane) were separated by 6%, 8%, 10% or 15% sodium dodecyl sulfate-polyacrylamide gel electrophoresis and transferred onto the nitrocellulose membranes. Following transfer, the nitrocellulose membranes were preincubated with 5% non-fat milk and incubated overnight at 4° C. with anti-β-actin (Sigma, 1:50000), anti-TH (Chemicon, 1:5000), anti-TH phosphoser19 (Chemicon, 1:5000), anti-TH phosphoser31 (Chemicon, 1:500), anti-TH phosphoser40 (Chemicon, 1:500), anti-F 4/80 (Serotec, 1:500), anti-BDNF (Chemicon, 1:500), anti-GDNF (Santa-Cruz, 1:250), anti-Akt (Cell signaling, 1:1000), anti-phospho Akt ser 473 (Cell signaling, 1:1000), anti-PI3K (Cell signaling, 1:1000), anti-phospho PI3K (Cell signaling, 1:500) and anti-α-synuclein (BD Transduction, 1:500) antibody. After incubation with primary antibody, membranes were incubated with the secondary anti-rabbit IgG, Horseradish Peroxidase (1:1000 dilution, Amersham) or anti-mouse IgG, Horseradish Peroxidase (1:1000, Sigma), or anti-goat IgG, Horseradish Peroxidase (1:1000, Sigma) for 2 h, washed. Subsequently visualized with the Amersham ECL system (Amersham, Arlington Heights, Ill., USA).

protein carbonyl = assay: Determination of protein carbonyl (Oxyblot assay); format: in vivo, mice; settings: striatum; for protein carbonyl expression: drug alone (no MPTP); for effect on MPTP-induced increase in protein carbonyl expression: one day after final MPTP, vs. MPTP alone
Method: Total protein ([…]) was used to perform the Oxyblot assay. The amount of oxidized proteins was measured using the Oxyblot kit (Chemicon International, CA), following the manufacturer's instructions. Briefly, the protein carbonyl content was measured by first forming labeled protein hydrazone derivatives using 2,4-dinitrophenylhydrazide (DNP). The INP-derivatized protein samples were separated by polyacrylamide gel electrophoresis followed by Western blotting. Blots were then incubated with primary antibody specific to the DNP moiety, followed by incubation with a horseradish peroxidase-antibody conjugate directed against the primary antibody. The blots were then treated with chemiluminescent reagents (Amersham) (Gemma et al., 2004).

mice = assay: Conditioned place preference (CPP); format: in vivo; settings: selegiline or MPPE 2.5 or 5.0 mg/kg i.p., MA 0.5 or 1.0 mg/kg i.p.; vs. saline
Method: For conditioned place preference (CPP) test, mice received an i.p. injection of saline just before entering the […] compartment. MA (0.5 or 1.0 mg/kg, i.p.), selegiline (2.5 or 5.0 mg/kg, i.p.), and MPPE (2.5 or 5.0 mg/kg, i.p.) dissolved in saline was administered immediately before the mice were placed in the white compartment. On day 1, the mice were pre-exposed to the test apparatus for 15 minutes. The guillotine style doors were raised and mice were allowed to move freely between the two compartments. On day 2, the time each mouse spent in each compartment was recorded for 15 minutes. On days 3, 5, 7, 9, 11, and 13, the mice were injected with each drug before being confined to the white compartment, the non-preferred side, for 40 minutes. On day 14, the guillotine doors were raised. The mice were initially placed in the tunnel and the time spent by the mice in the two compartments was recorded for 15 minutes. The scores were calculated from the differences in the time spent in the white compartment in the testing and pre-testing phases. Data were analyzed between 09:00 and 17:00 hours.

| Structure (SMILES) | effect on MPTP-impaired Rota-rod performance (MPTP-treated mice) | attenuation of MPTP-reduced rota-rod performance compared with selegiline (MPTP-treated mice; vs. selegiline-pretreated) | effect on MPTP-induced decrease of TH-immunoreactivity (TH-IR) ([1]; SN) | TH-immunoreactivity [1] | attenuation of TH-IR decrease compared with selegiline ([1]; striatum and SN, ICC, vs. selegiline+MPTP) | effect on MPTP-induced decrease of TH-immunoreactivity (TH-IR) ([1]; striatum) | effect on MPTP-induced reduction of BDNF expression [2] | enhancement of BDNF expression compared with selegiline ([2]; vs. selegiline+MPTP) | protein carbonyl expression (protein carbonyl) | effect on MPTP-induced increase in protein carbonyl expression (protein carbonyl) | attenuation of protein carbonyl increase compared with selegiline (protein carbonyl; vs. selegiline+MPTP) | conditioned place preference (CPP) (mice) |
| --- | --- | --- | --- | --- | --- | --- | --- | --- | --- | --- | --- | --- |
| C#CCN(C)CCc1ccccc1 [MPPE, N-methyl-N-propynyl-2-phenylethylamine] | significantly attenuated | more pronounced in the MPPE-pretreated mice than selegiline-pretreated case | significantly attenuated | did not show any significant effect | more evident | attenuated | significantly attenuated | more effective | a little induction | attenuated | appeared to be more underlined in the MPPE-pretreated mice | did not significantly change |
| C#CCN(C)[C@H](C)Cc1ccccc1 [selegiline, reference compound] | significantly attenuated |  | significantly attenuated | did not show any significant effect |  | attenuated | significantly attenuated |  | a little induction | attenuated |  | significantly increased compared with saline |
